This is an account of results in patent US10716806B2, “Solution of carbon monoxide for the treatment of disease, including sickle cell disease” (Children's Hospital Los Angeles, priority 2011, dated 2020).

Series [1] in a line: CO concentration achievable in aqueous composition (water) at given temperature and pressure. The class given is physicochemical. From the text:
There are a number of significant limitations to using the delivery of CO dissolved in liquid and used through the GI tract or IV for therapeutic or prophylactic purposes. These limitations have been overcome in the present invention. The primary barrier to date has been delivering sufficient quantities of CO. The solubility of CO in aqueous solutions is low at room temperature and normal atmospheric pressure (ATM). Thus, using approaches previously proposed in the art, which rely on dissolving CO into an aqueous composition at room temperature and at atmospheric pressure, the volume of liquid necessary to deliver a therapeutic dose of CO is logistically prohibitive. However, using the present invention, therapeutically useful levels of CO can be achieved. Table 1 provides a summary of volumes necessary to achieve a therapeutic dose providing an average increase of […] CO-Hb, which provides an average CO-Hb level in the blood of about 7% on average without rising above 15% at any given time. The values are presented for SCD patients. Table 2 provides a similar summary of volumes necessary to treat patients having normal levels of Hb and normal lung function.
First, in the present invention, in particular as it relates to embodiments wherein aqueous compositions are involved, CO is dissolved in an aqueous liquid under higher than ambient pressure. The use of pressure to dissolve the CO increases the achievable concentration of CO in solution. […] Although raising the pressure above 10 ATM might not be commercially practicable, it is technologically feasible at this time. […]

The conditions of series [2]: cited from earlier work.
For series [3] the following is noted: cited from earlier work. The source holds these as a separate data set.

Structures are written as SMILES.

For the compound `[C-]#[O+]` [CO, carbon monoxide], the “CO Concentration Achievable in Aqueous Composition” value in series [1] (2° C., 1 ATM) came to 40 mg/L water; in series [1] (2° C., 2 ATM), 80 mg/L water; in series [1] (2° C., 3 ATM), 120 mg/L water; in series [1] (2° C., 5 ATM) it was 200 mg/L water; in series [1] (2° C., 10 ATM), 400 mg/L water; in series [1] (21° C., 1 ATM) it was 25 mg/L water. For the same compound, the “CO Concentration in Aqueous Solution” value in series [1] (2° C., 1 ATM) worked out at 40 mg/L water; in series [1] (2° C., 2 ATM), 80 mg/L water; in series [1] (2° C., 3 ATM), 120 mg/L water; in series [1] (2° C., 5 ATM), 200 mg/L water; in series [1] (2° C., 10 ATM), 400 mg/L water. Also, the “half-life of the alpha-phase of CO in the human bloodstream” value in series [2] is 4 to 6 h. The “CO-Hb level at which toxicity and side effects are routinely seen” value in series [3] (generally recognized) is on record as “over 20%”. The “CO-Hb level showing effectiveness at reducing SCC without significant deleterious side effects or toxicity” value in series [3] (generally recognized) was “up to 15 % CO-Hb”. In series [3] (reported (Stewart 1975)), the “Hb saturation likely resulting in CO-induced death unless treatment is provided” value is reported as “over 67%”. The “Hb saturation resulting in loss of consciousness, among other serious morbidities” value in series [3] (reported, can result in death if maintained long-term) is “over 30%”.
